Laboratory results: patent US7018990B2, “Combination of a factor Xa inhibitor and clopidogrel” (Bristol-Myers Squibb Company, priority 2002, dated 2006)

Tests used:
rabbits [1] = assay: Electrically induced carotid artery thrombosis in anesthetized rabbits (clot inhibition, carotid blood flow); type: in vivo
Description: Rabbits were anesthetized with ketamine (50 mg/kg i.m.) and xylazine (10 mg/kg i.m.) and then surgically prepared with arterial and venous catheters. An electromagnetic flow probe was placed on a segment of an isolated carotid artery to monitor blood flow. Thrombus formation was induced by electrical stimulation of the carotid artery for 3 min at 4 mA using an external stainless-steel bipolar electrode. Carotid blood flow was measured continuously over a 45-min period to monitor thrombus occlusion. Compound A was infused intravenously whereas clopidogrel was infused into the portal vein. Both agents were infused 1 hour prior to the electrical stimulation of the carotid artery and continuously during the 45-min period.
(§1) The same experimental protocol as described in Example 1 was used in this study. Aspirin was infused intravenously whereas clopidogrel was infused into the portal vein. Both agents were infused 1 hour prior to the electrical stimulation of the carotid artery and the cuticle transection, and continuously to the end of the experiment.
The same experimental protocol as described in Example 1 was used in this study. Aspirin and Compound A were infused intravenously.

rabbits [2] = assay: Cuticle bleeding time in anesthetized rabbits; conditions: clopidogrel 1 mg/kg/hr infused into the portal vein, compared to the vehicle-group
Description: The bleeding time effects of Compound A, clopidogrel, and their combination were examined in anesthetized rabbits. Rabbits were anesthetized as described above and their hind paws were shaved. A standard cut was made at the apex of the cuticle with a razor blade. Blood was allowed to flow freely by keeping the bleeding site in contact with 37° C. warm lactated Ringer's solution. Bleeding time was defined as the time after transection when bleeding was ceased. It was measured by averaging the bleeding time of three nail cuticles in the control and treatment period. Percentage change in cuticle bleeding time is calculated by comparing the bleeding time taken in the treatment period to the control bleeding time. Compounds were infused as described above.
as §1

[3] = aspirin 0.3 mg/kg/hr infused intravenously
[4] = Compound A 0.1 mg/kg/hr infused intravenously
[5] = clopidogrel 1 mg/kg/hr infused into the portal vein

In the case of `CC(=O)Oc1ccccc1C(=O)O` [aspirin, acetylsalicyclic acid], the carotid blood flow (rabbits [1]; [3]) is reported as “not effective” and the “inhibition of clot formation” value (rabbits [1]; [3]) is reported as “not effective in inhibiting the formation of clot”.
With `CN(C)Cc1nccn1-c1ccc(NC(=O)c2cc(C(F)(F)F)nn2-c2ccc3onc(N)c3c2)c(F)c1.Cl` [Compound A, 1-(3′-aminobenzisoxazol-5′-yl)-3-trifluoromethyl-5-[[4-[(2′-dimethylaminomethyl)imidazol-1′-yl]-2fluorophenyl]aminocarbonyl]pyrazole-hydrochloric acid salt] the carotid blood flow (rabbits [1]; [4]) was “increase in carotid blood flow” and the “inhibition of clot formation” value (rabbits [1]; [4]) was “moderate inhibition of clot formation”.
With `COC(=O)[C@H](c1ccccc1Cl)N1CCc2sccc2C1` [clopidogrel, Clopidogrel] the bleeding time (rabbits [2]) was “increased the bleeding time significantly”, the carotid blood flow (rabbits [1]; [5]) was “increase in carotid blood flow” and the “inhibition of clot formation” value (rabbits [1]; [5]) was “moderate inhibition of clot formation”.
